Data published in US20190117653A1, “SYSTEMS AND METHODS FOR TREATING BACTERIAL INFECTION” (priority 2016, published 2019).
Converted amounts (≈) assume the structure as drawn. Counter-ions that a name gives are not always drawn. Like-named read-outs stand apart in the source and are kept apart here.

Assays:
E. faecalis ATCC 29212 = experiment: MIC with/without bovine pulmonary surfactant; type: cell-based; conditions: Enterococcus faecalis, ATCC29212, 2.5% v/v BPS, read-out: MIC, Resazurin: +BPS
Protocol: (§1) Antibacterial susceptibility testing was measured by JMI Labs (North Liberty, Iowa, USA). […] These clinical isolates were collected from US (n=4), Mexico (n=2), and Italy (n=1). Susceptibility testing was performed by broth microdilution in accordance with the Clinical and Laboratory and Standards Institute (CLSI) guidelines M07-A10 (2015) and the standard operating procedures at JMI laboratories. Minimum inhibitory concentrations (MICS) were based on CLSI criteria (2015). There are no published breakpoints for iclaprim. E. coli, K. pneumoniae, M. catarrhalis, E. faecalis, and S. aureus were tested in cation-adjusted Mueller-Hinton broth (CA-MHB). S. pneumoniae were tested in CA-MHB supplemented with 2.5-5% lysed horse blood, and H. influenza were tested in Haemophilus test medium. Quality control and interpretation of results were performed in accordance with CLSI M100-S26 (2016) methods. QC ranges for iclaprim were those approved by CLSI and published in M100-S26 (2016). Iclaprim and comparator antibiotic MIC results were within the CLSI published ranges against E. coli ATCC 25922, E. faecalis ATCC 29212, E. faecalis ATCC 33186, H. influenzae ATCC 49247, K. pneumoniae ATCC 700603 (ESBL phenotype), S. aureus ATCC 29213, and S. pneumoniae ATCC 49619. Isolates were tested with MIC panels (ThermoFisher Scientific, Cleveland, Ohio, USA) of comparator antibiotics (daptomycin and levofloxacin).
(§2) Because bovine pulmonary surfactant can introduce cloudiness to the MIC testing media, antimicrobial growth inhibition was also evaluated using the colorimetric metabolic indicator resazurin (Camlab Ltd., Cambridge, UK). […] S. pneumoniae panels were omitted from resazurin analysis because the color change was obscured by the lysed horse blood present in the test medium. Growth inhibition was then evaluated as a visible color change from blue (no growth) to pink (robust growth) and recorded as a MIC1z value.
(§3) The MICs of iclaprim, levofloxacin, and daptomycin were determined against Gram-positive and Gram-negative isolates.
(§4) A new vial of bovine pulmonary surfactant (BPS; Survanta®; Abbott Laboratories, Columbus, Ohio) was utilized for each independent experiment. Each vial was mixed thoroughly and a 100 μL aliquot was spread on an agar plate, which was incubated overnight to confirm sterility. […] The concentration of surfactant was expressed in terms of percent volume of Survanta® suspension, which consisted of phospholipid (25 mg/mL) and surfactant proteins (<1 mg/mL) in 0.9% sodium chloride solution (Goerke, 1998). MICs of daptomycin were determined in CAMHB with the Ca^2+ content adjusted to 50 mg/L.

E. faecalis ATCC 33186 = experiment: MIC with/without bovine pulmonary surfactant; type: cell-based; conditions: Enterococcus faecalis, ATCC33186, 2.5% v/v BPS, read-out: MIC, Resazurin: +BPS
Protocol: as §1, §2, §3, §4

[1] = tested on: M. catarrhalis Clinical Isolate 893806; experiment: MIC with/without bovine pulmonary surfactant; type: cell-based; conditions: Moraxella catarrhalis, 2.5% v/v BPS, read-out: MIC, Resazurin: +BPS
Protocol: as §1, §2, §3, §4

[2] = tested on: M. catarrhalis Clinical Isolate 893807; experiment: MIC with/without bovine pulmonary surfactant; type: cell-based; conditions: Moraxella catarrhalis, 2.5% v/v BPS, read-out: MIC, Resazurin: +BPS
Protocol: as §1, §2, §3, §4

S. aureus ATCC 29213 = experiment: MIC with/without bovine pulmonary surfactant; type: cell-based; conditions: Staphylococcus aureus
Protocol: as §1, §2, §3, §4

[3] = tested on: S. aureus Clinical Isolate 825189; experiment: MIC with/without bovine pulmonary surfactant; type: cell-based; conditions: Staphylococcus aureus
Protocol: as §1, §2, §3, §4

[4] = tested on: nosocomial pneumonia suspected or confirmed to be caused by Gram-positive pathogens; experiment: Phase 2 study in nosocomial pneumonia, iclaprim versus vancomycin; type: in vivo, human
Source text: This MIC effect of surfactant on daptomycin activity has been reported to be mediated by binding of surfactant components to specific structures present on antibiotics, such as the lipophilic side-chain of daptomycin (Silverman et al., 2005). […] Collectively, the current in vitro study and a previous Phase 2 study support that iclaprim could be a potential treatment for pneumonia, including nosocomial pneumonia caused by susceptible and multidrug resistant Gram-positive bacteria.

S. aureus strain AH1252 = experiment: neutropenic rat lung infection model; type: in vivo, Staphylococcus aureus
Protocol: S. aureus strain AH1252, a thymidine knockout of the MRSA wild type AW6 strain, was utilized for this study. The bacterial strain was diluted in a 2% alginate buffer, which was added dropwise in a ratio of 1:5 into […] to form alginate beads. The alginate beads reduce the efficacy of bacterial clearance similar to that seen in the cystic fibrosis population. A 5.25×10^4 bacterial inoculum was administered to groups of 9 rats, intratracheally, with prepared alginate bacteria suspensions, under isoflurane anesthesia. […] Twelve hours after the last treatment, rats were euthanized and lungs collected for CFU determination.

[5] = pH value of a 1% solution in water; type: physicochemical
Source text: The molecular formulae for iclaprim and iclaprim mesylate are […] (base) and C20H26N4O6S (mesylate), and their relative molecular masses are 354.41 (base) or 450.52 (mesylate). […] One skilled in the art can readily obtain iclaprim or iclaprim mesylate, and synthesis of these compounds is described in U.S. Pat. No. 5,773,446, the entire disclosure of which is herein incorporated by reference.

mouse = experiment: acute IV toxicity in the mouse (lowest lethal dose); type: in vivo
male and female rats = conditions: both, rat, in vivo, 4 weeks
Protocol: A repeated-dose, 4-week toxicity study was conducted in male and female rats, where single, daily IV bolus doses up to 60 mg/kg were given. […] A 28-day toxicity study was also conducted in male and female marmosets, where iclaprim mesylate was infused intravenously over a 20-minute interval.

female mini-pigs = conditions: minipig, in vivo
E. coli ATCC 25922 = experiment: MIC with/without bovine pulmonary surfactant; type: cell-based; conditions: Escherichia coli
Protocol: as §1, §2, §3, §4

[6] = ATCC29213, 2.5% v/v BPS, read-out: MIC, Resazurin: +BPS
[7] = ATCC29213, no BPS, read-out: MIC, CLSI
[8] = ATCC29213, no BPS, read-out: MIC, Resazurin
[9] = 2.5% v/v BPS, read-out: MIC, Resazurin: +BPS
[10] = no BPS, read-out: MIC, Resazurin

## CCCCCCCCCC(=O)N[C@@H](Cc1c[nH]c2ccccc12)C(=O)N[C@H](CC(N)=O)C(=O)N[C@@H](CC(=O)O)C(=O)N[C@@H]1C(=O)NCC(=O)N[C@@H](CCCN)C(=O)N[C@@H](CC(=O)O)C(=O)N[C@H](C)C(=O)N[C@@H](CC(=O)O)C(=O)NCC(=O)N[C@H](CO)C(=O)N[C@@H]([C@H](C)CC(=O)O)C(=O)N[C@@H](CC(=O)c2ccccc2N)C(=O)O[C@@H]1C [daptomycin]
E. faecalis ATCC 29212
  MIC: > 16 mg/L
E. faecalis ATCC 33186
  MIC: > 16 mg/L
[1]
  MIC: > 16 mg/L
[2]
  MIC: > 16 mg/L
S. aureus ATCC 29213; [6]
  MIC: > 16 mg/L
S. aureus ATCC 29213; [7]
  MIC: 0.5 mg/L (≈ 0.309 µM)
S. aureus ATCC 29213; [8]
  MIC: 0.5 mg/L (≈ 0.309 µM)
[3]; [9]
  MIC: > 16 mg/L
[3]; [10]
  MIC: 0.25 mg/L (≈ 0.154 µM)

## CN[C@H](CC(C)C)C(=O)N[C@H]1C(=O)N[C@@H](CC(N)=O)C(=O)N[C@H]2C(=O)N[C@H]3C(=O)N[C@H](C(=O)N[C@H](C(=O)O)c4cc(O)cc(O)c4-c4cc3ccc4O)[C@H](O)c3ccc(c(Cl)c3)Oc3cc2cc(c3O[C@@H]2O[C@H](CO)[C@@H](O)[C@H](O)[C@H]2O[C@H]2C[C@](C)(N)[C@H](O)[C@H](C)O2)Oc2ccc(cc2Cl)[C@H]1O [Vancomycin, vancomycin, reference compound]
[4]; vancomycin 1 g IV q12h, test of cure visit (12 of 23)
  cure rate, intent-to-treat population: 52.2%
[4]; vancomycin (5 of 23)
  death rate within 28 days of the start of treatment: 21.7%
S. aureus strain AH1252; 50 mg/kg SC/BID
  72 hour lungs log10CFU/Lung (CFU/gram of lung): 5.30
  Change in CFUs from 2 hr. infection controls: 2.18 log 10 CFU
  Change in CFUs from 72 hr. infection controls: −3.38 log 10 CFU
S. aureus strain AH1252; 50 mg/kg SC/BID (100 mg/kg/day) 3 days
  Survival >60 hrs: 8/9
S. aureus strain AH1252; vancomycin 50 mg/kg SC/BID
  CFU reduction from the 72 hour infection controls: 3.38 log 10 CFU

## COc1cc(Cc2cnc(N)nc2N)c2c(c1OC)OC(C1CC1)C=C2 (racemic) [iclaprim mesylate, 5-[(2RS)-2-cyclopropyl-7,8-dimethoxy-2Hchromen-5-ylmethyl] pyrimidine-2,4-diamine methanesulfonate]
[5]
  pH value: 4.2
mouse
  HED of lowest lethal IV dose: 6.1 mg/kg
  lowest lethal IV dose: 75 mg/kg
Male and female rats
  HED of NOAEL: 3.9 mg/kg/day
  dosage with histopathological changes at the injection sites: ≥ 10 mg/kg/day
Female mini-pigs
  HED of maximum tolerated single IV dose: 14.6 mg/kg
  maximum tolerated single IV dose: 20 mg/kg

## C[C@H]1COc2c(N3CCN(C)CC3)c(F)cc3c(=O)c(C(=O)O)cn1c23 [levofloxacin]
E. coli ATCC 25922; ATCC25922, 2.5% v/v BPS, read-out: MIC, CLSI: +BPS
  MIC: 0.03 mg/L (≈ 0.083 µM)
E. coli ATCC 25922; ATCC25922, 2.5% v/v BPS, read-out: MIC, Resazurin: +BPS
  MIC: 0.03 mg/L (≈ 0.083 µM)
E. coli ATCC 25922; ATCC25922, no BPS, read-out: MIC, CLSI
  MIC: 0.015 mg/L (≈ 0.0415 µM)
E. coli ATCC 25922; ATCC25922, no BPS, read-out: MIC, Resazurin
  MIC: 0.015 mg/L (≈ 0.0415 µM)
E. faecalis ATCC 33186
  MIC: 2 mg/L (≈ 5.53 µM)
S. aureus ATCC 29213; ATCC29213, 2.5% v/v BPS, read-out: MIC, CLSI: +BPS
  MIC: 0.12 mg/L (≈ 0.332 µM)
S. aureus ATCC 29213; [6]
  MIC: 0.12 mg/L (≈ 0.332 µM)
S. aureus ATCC 29213; [7]
  MIC: 0.25 mg/L (≈ 0.692 µM)
S. aureus ATCC 29213; [8]
  MIC: 0.25 mg/L (≈ 0.692 µM)
[3]; 2.5% v/v BPS, read-out: MIC, CLSI: +BPS
  MIC: 0.25 mg/L (≈ 0.692 µM)
[3]; [9]
  MIC: 0.25 mg/L (≈ 0.692 µM)
[3]; no BPS, read-out: MIC, CLSI
  MIC: 0.25 mg/L (≈ 0.692 µM)
[3]; [10]
  MIC: 0.25 mg/L (≈ 0.692 µM)
